In patent US12037345B2, “Heterobicyclic compounds for inhibiting the activity of SHP2” (TAIHO PHARMACEUTICAL CO., LTD., priority 2018, dated 2024):

Legend:
[1] = target: SHP2 (Homo sapiens (Human), UniProt Q06124); experiment: SHP2 Biochemical Assay (DiFMUP conversion, pIRS1-activated); conditions: Table 19; head prints unit as "-M"
In short: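 Rates of DiFMU formation were followed 30 min at ex 360/em 450 nm, with 50 μM DiFMUP, 10 pM SHP2 and pIRS1 peptide ([…]) after 30 min compound pre-incubation at pH 7.0 Bis-Tris propane. Four-parameter logistic IC50s in singlicate; repeat runs averaged.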

[2] = system: pERK (phospho-p44/42 ERK) in HCC827 cells; experiment: Cellular pERK Inhibition Assay, Method A (In-Cell Western); format: cell-based; conditions: Homo sapiens, Table 19, head prints unit as "-M", read-out: pERK (IC50) Method A
In short: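 In-Cell Western: phospho-p44/42 ERK antibody staining of formalin-fixed HCC827 cells after compound exposure (serum-free medium, 0.2% DMSO, 37 °C, indicated time). Readings minus cell-free blanks were normalised to DMSO-treated wells. Relative IC50 came from four-parameter logistic fits of quadruplicates, given as single or mean values.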

SHP2, sequence (Q06124 whole entry): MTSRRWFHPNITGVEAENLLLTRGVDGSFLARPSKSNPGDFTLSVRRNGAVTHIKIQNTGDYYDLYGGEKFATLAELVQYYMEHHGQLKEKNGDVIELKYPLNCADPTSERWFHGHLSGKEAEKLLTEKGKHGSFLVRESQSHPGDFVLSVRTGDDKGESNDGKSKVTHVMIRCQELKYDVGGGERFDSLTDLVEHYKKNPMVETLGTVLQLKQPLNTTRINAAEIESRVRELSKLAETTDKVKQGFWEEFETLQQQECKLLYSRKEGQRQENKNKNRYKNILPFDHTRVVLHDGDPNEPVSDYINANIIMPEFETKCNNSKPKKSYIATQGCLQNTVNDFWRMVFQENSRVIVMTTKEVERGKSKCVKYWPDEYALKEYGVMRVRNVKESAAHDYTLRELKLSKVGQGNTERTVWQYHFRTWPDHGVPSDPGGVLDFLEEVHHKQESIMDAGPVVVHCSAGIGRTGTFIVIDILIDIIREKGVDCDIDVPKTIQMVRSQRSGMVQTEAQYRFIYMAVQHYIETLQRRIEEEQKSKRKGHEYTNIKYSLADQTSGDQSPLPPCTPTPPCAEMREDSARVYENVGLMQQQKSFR

## Cn1cc2c(Cl)c(-c3c[nH]c4nc(N5C[C@H]6C[C@@H](C5)[C@@H]6N)n(C)c(=O)c34)ccc2n1 [Example 33, 2-(exo-6-amino-3-azabicyclo[3.1.1]heptan-3-yl)-5-(4-chloro-2-methyl-2H-indazol-5-yl)-3-methyl-3,7-dihydro-4H-pyrrolo[2,3-d]pyrimidin-4-one]
[1]
  IC50: 47 nM
[2]
  IC50: 480 nM

## Cn1cc2c(Cl)c(-c3c[nH]c4nc(N5C[C@H]6C[C@@H](C5)[C@H]6N)n(C)c(=O)c34)ccc2n1 [Example 34, 2-(endo-6-amino-3-azabicyclo[3.1.1]heptan-3-yl)-5-(4-chloro-2-methyl-2H-indazol-5-yl)-3-methyl-3,7-dihydro-4H-pyrrolo[2,3-d]pyrimidin-4-one]
[1]
  IC50: 160 nM
[2]
  IC50: 2300 nM

## Cn1cc2c(Cl)c(-c3c[nH]c4nc(N5CC6CC5CC6N)n(C)c(=O)c34)ccc2n1 (stereo not shown) [Example 35, 2-(5-amino-2-azabicyclo[2.2.1]heptan-2-yl)-5-(4-chloro-2-methyl-2H-indazol-5-yl)-3-methyl-3,7-dihydro-4H-pyrrolo[2,3-d]pyrimidin-4-one]
[1]
  IC50: 38 nM
[2]
  IC50: 1000 nM

## Cn1cc2c(Cl)c(-c3c[nH]c4nc(N5[C@@H]6CCC[C@H]5C[C@H](N)C6)n(C)c(=O)c34)ccc2n1 [Example 36, 2-(exo-3-amino-9-azabicyclo[3.3.1]nonan-9-yl)-5-(4-chloro-2-methyl-2H-indazol-5-yl)-3-methyl-3,7-dihydro-4H-pyrrolo[2,3-d]pyrimidin-4-one]
[1]
  IC50: 5.5 nM
[2]
  IC50: 350 nM

## Cn1cc2c(Cl)c(-c3c[nH]c4nc(N5[C@@H]6CCC[C@H]5C[C@@H](N)C6)n(C)c(=O)c34)ccc2n1 [Example 37, 2-(endo-3-amino-9-azabicyclo[3.3.1]nonan-9-yl)-5-(4-chloro-2-methyl-2H-indazol-5-yl)-3-methyl-3,7-dihydro-4H-pyrrolo[2,3-d]pyrimidin-4-one]
[1]
  IC50: 12 nM
[2]
  IC50: 970 nM

## Cn1cc2c(Cl)c(-c3c[nH]c4nc(N5CCC6(CCCN6)CC5)n(C)c(=O)c34)ccc2n1 [Example 38, 5-(4-chloro-2-methyl-2H-indazol-5-yl)-3-methyl-2-(1,8-diazaspiro[4.5]decan-8-yl)-3,7-dihydro-4H-pyrrolo[2,3-d]pyrimidin-4-one]
[1]
  IC50: 74 nM
[2]
  IC50: 1400 nM

## Cn1cc2c(Cl)c(-c3c[nH]c4nc(N5CCNCC5)n(C)c(=O)c34)ccc2n1 [Example 39, 5-(4-chloro-2-methyl-2H-indazol-5-yl)-3-methyl-2-(piperazin-1-yl)-3,7-dihydro-4H-pyrrolo[2,3-d]pyrimidin-4-one]
[1]
  IC50: 66 nM
[2]
  IC50: 700 nM

## Cn1cc2c(Cl)c(-c3c[nH]c4nc(N5CCC6NCC6C5)n(C)c(=O)c34)ccc2n1 (stereo not shown) [Example 40, 2-(3,7-diazabicyclo[4.2.0]octan-3-yl)-5-(4-chloro-2-methyl-2H-indazol-5-yl)-3-methyl-3,7-dihydro-4H-pyrrolo[2,3-d]pyrimidin-4-one]
[1]
  IC50: 96 nM
[2]
  IC50: 4500 nM

## Cn1cc2c(Cl)c(-c3c[nH]c4nc(N5CCC6(CCCCN6)CC5)n(C)c(=O)c34)ccc2n1 [Example 41, 5-(4-chloro-2-methyl-2H-indazol-5-yl)-3-methyl-2-(1,9-diazaspiro[5.5]undecan-9-yl)-3,7-dihydro-4H-pyrrolo[2,3-d]pyrimidin-4-one]
[1]
  IC50: 57 nM
[2]
  IC50: 1800 nM

## Cn1cc2c(Cl)c(-c3c[nH]c4nc(N5CC[C@H](N)C5)n(C)c(=O)c34)ccc2n1 [Example 43, (S)-2-(3-aminopyrrolidin-1-yl)-5-(4-chloro-2-methyl-2H-indazol-5-yl)-3-methyl-3,7-dihydro-4H-pyrrolo[2,3-d]pyrimidin-4-one]
[1]
  IC50: 35 nM
[2]
  IC50: 720 nM

## Cn1cc2c(Cl)c(-c3c[nH]c4nc(N5CC[C@@H](N)C5)n(C)c(=O)c34)ccc2n1 [Example 44, (R)-2-(3-aminopyrrolidin-1-yl)-5-(4-chloro-2-methyl-2H-indazol-5-yl)-3-methyl-3,7-dihydro-4H-pyrrolo[2,3-d]pyrimidin-4-one]
[1]
  IC50: 55 nM
[2]
  IC50: 1500 nM

## C[C@H]1CN(c2nc3[nH]cc(-c4ccc5nn(C)cc5c4Cl)c3c(=O)n2C)CCN1 [Example 45, (S)-5-(4-chloro-2-methyl-2H-indazol-5-yl)-3-methyl-2-(3-methylpiperazin-1-yl)-3,7-dihydro-4H-pyrrolo[2,3-d]pyrimidin-4-one]
[1]
  IC50: 110 nM
[2]
  IC50: 1500 nM

## Cn1cc2c(Cl)c(-c3c[nH]c4nc(N5[C@@H]6CC[C@H]5[C@@H](N)C6)n(C)c(=O)c34)ccc2n1 [Example 46, 2-((1S,2S,4R)-2-amino-7-azabicyclo[2.2.1]heptan-7-yl)-5-(4-chloro-2-methyl-2H-indazol-5-yl)-3-methyl-3,7-dihydro-4H-pyrrolo[2,3-d]pyrimidin-4-one]
[1]
  IC50: 33 nM
[2]
  IC50: 420 nM

## C[C@@H]1CNCCN1c1nc2[nH]cc(-c3ccc4nn(C)cc4c3Cl)c2c(=O)n1C [Example 47, (R)-5-(4-chloro-2-methyl-2H-indazol-5-yl)-3-methyl-2-(2-methylpiperazin-1-yl)-3,7-dihydro-4H-pyrrolo[2,3-d]pyrimidin-4-one]
[1]
  IC50: 32 nM
[2]
  IC50: 380 nM

## C[C@H]1CNCCN1c1nc2[nH]cc(-c3ccc4nn(C)cc4c3Cl)c2c(=O)n1C [Example 48, (S)-5-(4-chloro-2-methyl-2H-indazol-5-yl)-3-methyl-2-(2-methylpiperazin-1-yl)-3,7-dihydro-4H-pyrrolo[2,3-d]pyrimidin-4-one]
[1]
  IC50: 85 nM
[2]
  IC50: 1000 nM

## Cn1cc2c(Cl)c(-c3c[nH]c4nc(N5[C@H]6CC[C@@H]5[C@H](N)C6)n(C)c(=O)c34)ccc2n1 [Example 49, 2-((1R,2R,4S)-2-amino-7-azabicyclo[2.2.1]heptan-7-yl)-5-(4-chloro-2-methyl-2H-indazol-5-yl)-3-methyl-3,7-dihydro-4H-pyrrolo[2,3-d]pyrimidin-4-one]
[1]
  IC50: 4.5 nM
[2]
  IC50: 21 nM

## Cn1cc2c(Cl)c(-c3c[nH]c4nc(N5C[C@@H](N)[C@@H](F)C5)n(C)c(=O)c34)ccc2n1 [Example 50, 2-((3R,4S)-3-amino-4-fluoropyrrolidin-1-yl)-5-(4-chloro-2-methyl-2H-indazol-5-yl)-3-methyl-3,7-dihydro-4H-pyrrolo[2,3-d]pyrimidin-4-one]
[1]
  IC50: 250 nM
[2]
  IC50: 4700 nM

## Cn1cc2c(Cl)c(-c3c[nH]c4nc(N5C[C@H](N)[C@@H](F)C5)n(C)c(=O)c34)ccc2n1 [Example 52, 2-((3S,4S)-3-amino-4-fluoropyrrolidin-1-yl)-5-(4-chloro-2-methyl-2H-indazol-5-yl)-3-methyl-3,7-dihydro-4H-pyrrolo[2,3-d]pyrimidin-4-one]
[1]
  IC50: 180 nM
[2]
  IC50: 1900 nM

## Cn1cc2c(Cl)c(-c3c[nH]c4nc(N5CC(N)C(F)(F)C5)n(C)c(=O)c34)ccc2n1 (stereo not shown) [Example 53, 2-(4-amino-3,3-difluoropyrrolidin-1-yl)-5-(4-chloro-2-methyl-2H-indazol-5-yl)-3-methyl-3,7-dihydro-4H-pyrrolo[2,3-d]pyrimidin-4-one]
[1]
  IC50: 330 nM
[2]
  IC50: 3100 nM

## Cn1cc2c(Cl)c(-c3c[nH]c4nc(N5CC[C@](C)(N)C5)n(C)c(=O)c34)ccc2n1 [Example 54, (S)-2-(3-amino-3-methylpyrrolidin-1-yl)-5-(4-chloro-2-methyl-2H-indazol-5-yl)-3-methyl-3,7-dihydro-4H-pyrrolo[2,3-d]pyrimidin-4-one]
[1]
  IC50: 110 nM
[2]
  IC50: 1800 nM

## Cn1cc2c(Cl)c(-c3c[nH]c4nc(N5CC[C@@](C)(N)C5)n(C)c(=O)c34)ccc2n1 [Example 55, (R)-2-(3-amino-3-methylpyrrolidin-1-yl)-5-(4-chloro-2-methyl-2H-indazol-5-yl)-3-methyl-3,7-dihydro-4H-pyrrolo[2,3-d]pyrimidin-4-one]
[1]
  IC50: 74 nM
[2]
  IC50: 1100 nM

## C[C@@H]1CN(c2nc3[nH]cc(-c4ccc5nn(C)cc5c4Cl)c3c(=O)n2C)C[C@@H]1N [Example 56, 2-((3R,4R)-3-amino-4-methylpyrrolidin-1-yl)-5-(4-chloro-2-methyl-2H-indazol-5-yl)-3-methyl-3,7-dihydro-4H-pyrrolo[2,3-d]pyrimidin-4-one]
[1]
  IC50: 73 nM
[2]
  IC50: 1100 nM

## C[C@H]1CN(c2nc3[nH]cc(-c4ccc5nn(C)cc5c4Cl)c3c(=O)n2C)C[C@@H]1N [Example 57, 2-((3R,4S)-3-amino-4-methylpyrrolidin-1-yl)-5-(4-chloro-2-methyl-2H-indazol-5-yl)-3-methyl-3,7-dihydro-4H-pyrrolo[2,3-d]pyrimidin-4-one]
[1]
  IC50: 120 nM
[2]
  IC50: 2900 nM

## Cn1cc2c(Cl)c(-c3c[nH]c4nc(N5CCC(N)(CO)C5)n(C)c(=O)c34)ccc2n1 (stereo not shown) [Example 58, 2-(3-amino-3-(hydroxymethyl)pyrrolidin-1-yl)-5-(4-chloro-2-methyl-2H-indazol-5-yl)-3-methyl-3,7-dihydro-4H-pyrrolo[2,3-d]pyrimidin-4-one]
[1]
  IC50: 99 nM
[2]
  IC50: > 10000 nM

## C[C@@H]1OCC2(CCN(c3nc4[nH]cc(-c5ccc6nn(C)cc6c5Cl)c4c(=O)n3C)CC2)[C@@H]1N [Example 59, 2-((3S,4S)-4-amino-3-methyl-2-oxa-8-azaspiro[4.5]decan-8-yl)-5-(4-chloro-2-methyl-2H-indazol-5-yl)-3-methyl-3,7-dihydro-4H-pyrrolo[2,3-d]pyrimidin-4-one]
[1]
  IC50: 5.5 nM
[2]
  IC50: 48 nM

## Cn1cc2c(Cl)c(-c3c[nH]c4nc(N5CC[C@H](CN)C5)n(C)c(=O)c34)ccc2n1 [Example 60, (R)-2-(3-(aminomethyl)pyrrolidin-1-yl)-5-(4-chloro-2-methyl-2H-indazol-5-yl)-3-methyl-3,7-dihydro-4H-pyrrolo[2,3-d]pyrimidin-4-one]
[1]
  IC50: 82 nM
[2]
  IC50: 3800 nM
